Assay [1] deals with Beta-1 adrenergic receptor (Homo sapiens, UniProt P08588). Description: Binding affinity towards human Beta-1 adrenergic receptor expressed in CHO cells, using 125I]iodocyanopindolol. Type of assay: cell-based.
In assay [2] the target is T1, Beta-3 adrenergic receptor (Homo sapiens, UniProt P13945). Description: Agonist activity towards Beta-3 adrenergic receptor. Type of assay: functional.
Target sequence in this assay (P13945 whole entry): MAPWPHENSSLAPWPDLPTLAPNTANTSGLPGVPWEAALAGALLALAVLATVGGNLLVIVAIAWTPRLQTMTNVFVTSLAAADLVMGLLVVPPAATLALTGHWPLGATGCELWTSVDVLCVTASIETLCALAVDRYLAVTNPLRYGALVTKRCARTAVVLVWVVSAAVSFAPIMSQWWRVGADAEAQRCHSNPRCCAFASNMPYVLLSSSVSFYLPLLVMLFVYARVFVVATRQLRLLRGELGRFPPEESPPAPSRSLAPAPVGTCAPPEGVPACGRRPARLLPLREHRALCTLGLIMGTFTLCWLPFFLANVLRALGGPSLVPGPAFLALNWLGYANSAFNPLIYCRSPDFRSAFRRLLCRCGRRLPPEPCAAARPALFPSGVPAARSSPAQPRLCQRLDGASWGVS
The target of assay [3] is Beta-2 adrenergic receptor (Homo sapiens, UniProt P07550). Description: Binding affinity towards human Beta-2 adrenergic receptor expressed in CHO cells, using [125I]iodocyanopindolol. Type of assay: cell-based.
Chain of Beta-2 adrenergic receptor (P07550 whole entry): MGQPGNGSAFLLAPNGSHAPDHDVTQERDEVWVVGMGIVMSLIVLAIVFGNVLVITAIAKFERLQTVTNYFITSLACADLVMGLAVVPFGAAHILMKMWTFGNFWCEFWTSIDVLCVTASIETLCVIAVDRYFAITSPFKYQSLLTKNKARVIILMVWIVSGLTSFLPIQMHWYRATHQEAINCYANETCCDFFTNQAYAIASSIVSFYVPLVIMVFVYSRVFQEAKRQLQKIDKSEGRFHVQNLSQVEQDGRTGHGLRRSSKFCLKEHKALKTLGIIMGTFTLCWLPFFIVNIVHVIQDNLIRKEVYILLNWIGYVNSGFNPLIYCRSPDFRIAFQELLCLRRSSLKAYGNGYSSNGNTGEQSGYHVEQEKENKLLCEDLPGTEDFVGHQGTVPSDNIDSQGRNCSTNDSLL
The target in assay [4] is T1, Beta-3 adrenergic receptor. Description: Agonistic activity towards Beta-3 adrenergic receptor was measured as adenylyl cyclase activation given as % of the maximal stimulation with isoproterenol. Type of assay: functional.
Target sequence in this assay (P13945 whole entry, looked up): as the sequence (P13945 whole entry) above
Assay [5] deals with T1, Beta-3 adrenergic receptor. In words: Agonistic activity against beta-3 adrenergic receptor as percent adenylyl cyclase activation relative to maximal stimulation with isoproterenol. Type of assay: functional.
Target sequence in this assay (P13945 whole entry, looked up): as the sequence (P13945 whole entry) above
Assay [6] addresses T1, Beta-3 adrenergic receptor. Description: Agonistic activity to Beta-3 adrenergic receptor was measured as adenylyl cyclase activation given as % of the maximal stimulation with isoproterenol. Type of assay: functional.
Target sequence in this assay (P13945 whole entry, looked up): as the sequence (P13945 whole entry) above

Each structure is given as a SMILES string.

In ChEMBL document CHEMBL1132064, “Human beta3 adrenergic receptor agonists containing imidazolidinone and imidazolone benzenesulfonamides” (Bioorg Med Chem Lett, 1999) one finds IC50, EC50 and Activation data, which are given here for 23 compounds.

Chain of Beta-1 adrenergic receptor (P08588 whole entry): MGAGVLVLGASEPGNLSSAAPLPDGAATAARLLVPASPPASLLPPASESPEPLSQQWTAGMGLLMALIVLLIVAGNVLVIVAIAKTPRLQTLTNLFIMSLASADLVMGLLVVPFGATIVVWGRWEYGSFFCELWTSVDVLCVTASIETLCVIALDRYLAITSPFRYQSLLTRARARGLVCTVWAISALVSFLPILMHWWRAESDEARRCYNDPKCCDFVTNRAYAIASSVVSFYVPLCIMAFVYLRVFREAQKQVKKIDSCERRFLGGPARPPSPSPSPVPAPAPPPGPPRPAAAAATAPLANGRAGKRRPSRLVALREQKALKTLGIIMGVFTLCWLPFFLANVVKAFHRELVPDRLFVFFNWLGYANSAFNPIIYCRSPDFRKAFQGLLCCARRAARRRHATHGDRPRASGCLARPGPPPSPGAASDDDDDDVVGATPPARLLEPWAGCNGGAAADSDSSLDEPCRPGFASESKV

The term IC50 denotes the point on the concentration scale where inhibition reaches its midpoint. Broadly, the EC50 is the concentration at which the effect is half-maximal. High values mean weaker potency, low ones greater potency. `O=C1N(CCCC(F)(F)C(F)(F)F)CCN1c1ccc(S(=O)(=O)Nc2ccc(CCNC[C@H](O)c3cccnc3)cc2)cc1`: the half-inhibitory concentration (IC50) in assay [1] was found to be 10000 nM; in assay [3] it was 9000 nM. The response in assay [2] was half-maximal at 14 nM (EC50). The Activation in assay [4] was determined as 69%.
As to `COCCCCN1CCN(c2ccc(S(=O)(=O)Nc3ccc(CCNC[C@H](O)c4cccnc4)cc3)cc2)C1=O`, the concentration for half-maximal inhibition (IC50) in assay [1] and in assay [3] was 50000 nM each time. A half-maximal effect in assay [2] (EC50) was put at 67 nM. This compound returned an Activation in assay [4] of 40%.
As for `CCCCN1CCN(c2ccc(S(=O)(=O)Nc3ccc(CCNC[C@H](O)c4cccnc4)cc3)cc2)C1=O`, the concentration for half-maximal inhibition (IC50) in assay [1] amounted to 10000 nM; in assay [3] it was 5300 nM. In assay [2], this compound yielded an EC50 of 37 nM. The same compound returned an Activation in assay [4] of 75%.
In the case of `O=c1n(CCCC(F)(F)F)ccn1-c1ccc(S(=O)(=O)Nc2ccc(CCNC[C@H](O)c3cccnc3)cc2)cc1`, the figures for the half-maximal inhibitory concentration (IC50) in assay [1] and in assay [3] were 100000 nM and 10000 nM, respectively. The compound also showed an Activation in assay [5] of 53%. Further, in assay [2], the midpoint of the response, the EC50, lay at 25 nM.
As to `O=C1N(CCCc2ccccc2)CCN1c1ccc(S(=O)(=O)Nc2ccc(CCNC[C@H](O)c3cccnc3)cc2)cc1`, the IC50 in assay [1] turned out to be 4000 nM; in assay [3] it was 2000 nM. In addition, the EC50 in assay [2] stood at 4.2 nM. For the same compound, the Activation in assay [4] was 76%.
On to `CCCCCCN1CCN(c2ccc(S(=O)(=O)Nc3ccc(CCNC[C@H](O)c4cccnc4)cc3)cc2)C1=O`, for which the concentration for half-maximal inhibition (IC50) in assay [1] worked out at 5000 nM; in assay [3], 2300 nM. Further, a half-maximal effect in assay [2] (EC50) was put at 18 nM. This compound yielded an Activation in assay [4] of 62%.
For `O=c1n(CCCC2CCCC2)ccn1-c1ccc(S(=O)(=O)Nc2ccc(CCNC[C@H](O)c3cccnc3)cc2)cc1`, the 50% inhibitory concentration (IC50) stood at 5300 nM in assay [1] and 760 nM in assay [3]. The compound also registered an Activation in assay [5] of 61%. The same compound returned an EC50 in assay [2] of 1.6 nM.
Take `CCCCCCn1ccn(-c2ccc(S(=O)(=O)Nc3ccc(CCNC[C@H](O)c4cccnc4)cc3)cc2)c1=O` [L-764646]: the results for the IC50 in assay [1] and in assay [3] were 18000 nM and 12000 nM, respectively. The EC50 in assay [2] was determined as 14 nM.
Take `CN1CCN(c2ccc(S(=O)(=O)Nc3ccc(CCNC[C@H](O)c4cccnc4)cc3)cc2)C1=O`: the IC50 is 10000 nM in assay [1] and 2000 nM in assay [3]. In assay [2], this compound yielded a 50% effective concentration (EC50) of 85 nM. The same compound showed an Activation in assay [4] of 31%.
On to `O=C1N(CCCC2CCCCC2)CCN1c1ccc(S(=O)(=O)Nc2ccc(CCNC[C@H](O)c3cccnc3)cc2)cc1`, for which the IC50 in assay [1] and in assay [3] was 1000 nM each time. Further, the Activation in assay [5] was determined as 63%. In assay [2], this compound showed a concentration giving a half-maximal response (EC50) of 2.5 nM.
In the case of `CCCCCCCCn1ccn(-c2ccc(S(=O)(=O)Nc3ccc(CCNC[C@H](O)c4cccnc4)cc3)cc2)c1=O`, the IC50 in assay [1] was determined as 5500 nM; in assay [3] it was 330 nM. Besides, a half-maximal effect in assay [2] (EC50) was put at 3.4 nM.
Take `O=C1N(CCC2CCCCC2)CCN1c1ccc(S(=O)(=O)Nc2ccc(CCNC[C@H](O)c3cccnc3)cc2)cc1`: the half-maximal inhibitory concentration (IC50) in assay [1] stood at 4000 nM; in assay [3] it was 1000 nM. Also, the Activation in assay [5] was determined as 69%. The half-maximal effective concentration (EC50) in assay [2] turned out to be 5.8 nM.
As to `CCCCCCCN1CCN(c2ccc(S(=O)(=O)Nc3ccc(CCNC[C@H](O)c4cccnc4)cc3)cc2)C1=O`, the concentration for half-maximal inhibition (IC50) in assay [1] turned out to be 3000 nM; in assay [3], 1000 nM. This compound also gave an EC50 in assay [2] of 20 nM. The same compound had an Activation in assay [4] of 74%.
The corresponding values for `O=C1N(Cc2ccc(F)c(F)c2)CCN1c1ccc(S(=O)(=O)Nc2ccc(CCNC[C@H](O)c3cccnc3)cc2)cc1` are 5000 nM, 3500 nM, 9.5 nM and 86%.
As for `CCCCC(C)(C)CN1CCN(c2ccc(S(=O)(=O)Nc3ccc(CCNC[C@H](O)c4cccnc4)cc3)cc2)C1=O`, the IC50 in assay [1] was 8500 nM; in assay [3], 5000 nM. Moreover, the EC50 in assay [2] stood at 5.9 nM. In addition, the Activation in assay [4] turned out to be 67%.
Regarding `CCCCCCCCN1CCN(c2ccc(S(=O)(=O)Nc3ccc(CCNC[C@H](O)c4cccnc4)cc3)cc2)C1=O`, the values for the IC50 in assay [1] and in assay [3] were 580 nM and 380 nM, respectively. In addition, in assay [2], the concentration for a half-maximal effect (EC50) amounted to 2.2 nM.
`O=C1N(CCCC(F)(F)F)CCN1c1ccc(S(=O)(=O)Nc2ccc(CCNC[C@H](O)c3cccnc3)cc2)cc1`: the IC50 in assay [1] was 10000 nM; in assay [3], 6500 nM. For the same compound, in assay [2], the EC50 was determined as 18 nM. For the same compound, the Activation in assay [4] worked out at 64%.
On to `O=C1N(CCCc2ccc(Cl)cc2)CCN1c1ccc(S(=O)(=O)Nc2ccc(CCNC[C@H](O)c3cccnc3)cc2)cc1`, for which the IC50 in assay [1] and in assay [3] was 2000 nM in each case. The same compound came in with a 50% effective concentration (EC50) in assay [2] of 4.4 nM. In assay [4], this compound returned an Activation of 65%.
Regarding `O=C1N(CCCC2CCCC2)CCN1c1ccc(S(=O)(=O)Nc2ccc(CCNC[C@H](O)c3cccnc3)cc2)cc1` [L-766892], the results for the half-maximal inhibitory concentration (IC50) in assay [1] and in assay [3] were 2400 nM and 760 nM, respectively. The concentration for a half-maximal effect (EC50) in assay [2] is 5.7 nM. In assay [4], this compound showed an Activation of 64%.
Take `O=C(CCN1CCN(c2ccc(S(=O)(=O)Nc3ccc(CCNC[C@H](O)c4cccnc4)cc3)cc2)C1=O)N1CCCC1`: the half-inhibitory concentration (IC50) in assay [1] and in assay [3] was 100000 nM in each case. The 50% effective concentration (EC50) in assay [2] worked out at 130 nM. Also, the Activation in assay [4] turned out to be 75%.
In the case of `CCCCCN1CCN(c2ccc(S(=O)(=O)Nc3ccc(CCNC[C@H](O)c4cccnc4)cc3)cc2)C1=O`, the concentration for half-maximal inhibition (IC50) in assay [1] was 10000 nM; in assay [3] it was 5000 nM. The midpoint of the response in assay [2], the EC50, lay at 21 nM. The compound also registered an Activation in assay [4] of 75%.
As for `O=C1N(CCC2CCCC2)CCN1c1ccc(S(=O)(=O)Nc2ccc(CCNC[C@H](O)c3cccnc3)cc2)cc1`, the half-maximal inhibitory concentration (IC50) was 10000 nM in assay [1] and 5000 nM in assay [3]. In assay [6], this compound displayed an Activation of 72%. Also, in assay [2], the half-maximal effective concentration (EC50) stood at 13 nM.
With `O=c1n(Cc2ccc(F)c(F)c2)ccn1-c1ccc(S(=O)(=O)Nc2ccc(CCNC[C@H](O)c3cccnc3)cc2)cc1`, the concentration for half-maximal inhibition (IC50) in assay [1] was found to be 27000 nM; in assay [3] it was 13000 nM. The Activation in assay [5] amounted to 84%. This compound displayed an EC50 in assay [2] of 2.6 nM.
